How the values were obtained:
Test in all cases: relative viability (nuclei count vs DMSO), 5 days (fraction); higher = more cells survive
[1] = compound: C1CC(C2=C(C1)C3=C(N2)C=CC(=C3)Cl)C(=O)N [Selisistat] + CCNC(=O)c1noc(-c2cc(C(C)C)c(O)cc2O)c1-c1ccc(CN2CCOCC2)cc1 [Luminespib] (partner 0.01 µM)
Summary of the method: (§1)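 The day after seeding in 1536-well plates, lung cancer cell lines were treated by pin tool with a single drug, or with a fixed anchor-drug dose together with five library-drug doses (not always all listed) in √10 steps. After 5 days, a combined fix-and-stain solution (final 0.05% Triton X-100, 1% formaldehyde, 1 ug/ml Hoechst) was added. Nuclei counted on 4× images gave relative viability as treated counts over vehicle counts, reported as the median of duplicate plates.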

[2] = compound: c1ccc2c(CCNc3ccc(Nc4ccncc4)cc3)c[nH]c2c1 [Serdemetan] + CC(=O)Nc1cccc(-n2c(=O)n(C3CC3)c(=O)c3c(Nc4ccc(I)cc4F)n(C)c(=O)c(C)c32)c1 [Trametinib] (partner 0.02 µM)
Summary of the method: as §1

[3] = compound: c1ccc2c(CCNc3ccc(Nc4ccncc4)cc3)c[nH]c2c1 [Serdemetan] + C[C@]1(O)C[C@@H](c2nc(-c3ccc4ccc(-c5ccccc5)nc4c3)c3c(N)nccn32)C1 [Linsitinib] (partner 1 µM)
Summary of the method: as §1

[4] = compound: c1ccc2c(CCNc3ccc(Nc4ccncc4)cc3)c[nH]c2c1 [Serdemetan] + Nc1ncn([C@H]2C[C@H](O)[C@@H](CO)O2)c(=O)n1 [Decitabine] (partner 2 µM)
Summary of the method: as §1

Cell Line	relative viability ([1]; first compound 0.4 µM)	relative viability ([1]; first compound 1.265 µM)	relative viability ([1]; first compound 12.65 µM)	relative viability ([1]; first compound 40 µM)	relative viability ([2]; first compound 0.04 µM)	relative viability ([2]; first compound 0.1265 µM)	relative viability ([2]; first compound 0.4 µM)	relative viability ([2]; first compound 1.265 µM)	relative viability ([2]; first compound 4 µM)	relative viability ([3]; first compound 0.04 µM)	relative viability ([3]; first compound 0.1265 µM)	relative viability ([3]; first compound 0.4 µM)	relative viability ([3]; first compound 1.265 µM)	relative viability ([3]; first compound 4 µM)	relative viability ([4]; first compound 0.04 µM)	relative viability ([4]; first compound 0.1265 µM)	relative viability ([4]; first compound 0.4 µM)	relative viability ([4]; first compound 1.265 µM)	relative viability ([4]; first compound 4 µM)	relative viability ([1]; first compound 4 µM)
NCI-H2087	0.157	0.139	0.147	0.158	0.223	0.185	0.191	0.168	0.169	0.907	0.842	0.945	0.608	0.505	0.285	0.23	0.251	0.145	0.135	
NCI-H2126	0.929	0.972	0.947	0.965	0.59	0.557	0.577	0.512	0.604	0.745	0.736	0.638	0.642	0.686	0.623	0.583	0.612	0.451	0.519	0.872
NCI-H2347	0.322	0.406	0.283	1.01	0.286	0.253	0.289	0.259	0.25	0.753	0.965	0.959	0.666	0.679	0.638	0.615	0.583	0.474	0.527	0.186
NCI-H2405	0.745	0.691	0.659	0.766	0.709	0.655	0.64	0.587	0.558	0.864	0.997	0.964	0.897	0.628	0.707	0.766	0.756	0.674	0.625	0.556
NCI-H3122	0.0986	0.102	0.115	0.088	0.246	0.238	0.252	0.245	0.206	1.09	0.946	1.05		1.07	0.451	0.444	0.469	0.322	0.368	0.1
PC-3 [JPC-3]	0.784	0.68	0.687	0.657	0.708	0.634	0.663	0.67	0.684	0.92	0.972		0.919	0.985	0.901	0.844	0.854	0.847	0.742	0.6
PC-14	0.141	0.151	0.221	0.311	0.798	0.747		0.647	0.601	0.901	0.952	0.909	0.78	0.805	0.186	0.202		0.125	0.138	
RERF-LC-KJ	1.24	1.02	1.09	0.956	0.896	0.874	0.898	0.793	0.778	0.869	0.851	0.857	0.745	0.727	0.785	0.636	0.722	0.489	0.605	1.27
SK-LU-1	0.202	0.176	0.213	0.227	0.485	0.464	0.444	0.332	0.44	1.13	1.14	1.07	1.03	0.732	0.581	0.58	0.691	0.393	0.593	0.189
SK-MES-1	1	0.906	0.622	0.788	0.48	0.538	0.531	0.532	0.563	0.964	1.2	1.03	0.796	0.674	0.327	0.368	0.397	0.33	0.281	0.802
SW 1573	0.154	0.135	0.206	0.228	0.595	0.6	0.465	0.412	0.256	0.81	0.769	0.738	0.346	0.258	0.484	0.522	0.427	0.249	0.219	0.222

— the supplement of paper PMC10307832
